The values below are quoted from earlier work in patent US20030215513A1, “Method for releasing nanosized particles of an active substance from a diffusion-controlled pharmaceutical composition for oral use” (priority 2002, published 2003).

Structures are written as SMILES. Where two headings read alike, the source gives them in different places.

For `OC[C@@H](O)[C@@H](O)[C@H](O)[C@H](O)CO` [mannitol], the saturated concentration entry (at 37° C.) is listed as “about 17%”.

On to `OC[C@@H](O)[C@@H](O)[C@H](O)[C@@H](O)CO` [sorbitol], for which, under “at 25° C.”, the saturated concentration entry is “about 66%”.
